Source: publication PMC4721142, “Randomized controlled studies on the efficacy of antiarthritic agents in inhibiting cartilage degeneration and pain associated with progression of osteoarthritis in the rat” (Arthritis Research & Therapy, 2016)
Where two headings read alike, the source gives them in different places.

Assays:
NF-κB = experiment: TNF-α-stimulated NF-κB dual luciferase reporter assay in HeLa cells; type: cell-based
Description: NF-κB activity was assessed using a previously described dual plasmid reporter system. HeLa cells were transfected with NF-κB luciferase (Stratagene Products Division, Agilent Technologies, La Jolla, CA, USA) and pRLuc-N3 (PerkinElmer, Waltham, MA, USA) at an 8:1 ratio, respectively, in triplicate. […] NF-κB activity was measured 5 h later with a Dual-Glo Luciferase Assay (Promega, Madison, WI, USA) and an Omni plate reader (BMG Labtech, Cary, NC, USA). The ratio of firefly luciferase luminescence (NF-κB reporter) to Renilla luciferase luminescence (control) was normalized for the number of viable transfected cells. Data are reported as a ratio of activity of viable treated cells over the activity of cells not exposed to TNF-α or drug (fold stimulation above basal untreated levels of activity). The viability of HeLa cells with and without drug was also measured using a CellTiter-Glo luminescent viability assay (Promega). […]
NF-κB activity was assessed in HeLa cells that were transiently transfected with two reporter constructs as described in the manuscript. Agents were tested for their ability to block TNF- […]
Expression of the luciferase from the Renilla construct was used as a measure of viability, which was confirmed with a cytotoxicity assay (see later section).

RAW 264.7 cells = experiment: RANKL-mediated osteoclastogenesis / matrix resorption (Osteologic) assay; type: cell-based, murine; conditions: for minimal effective concentration: Mus musculus, RAW264.7, 168 h, read-out: Lowest inhibitory concentration, matrix resorption
Description: RAW 264.7 cells (American Type Culture Collection [ATCC], Manassas, VA, USA), a murine monocytic cell line that differentiates in the presence of RANKL, was used for measurements of osteoclastogenesis and osteoclast activity. Cells were amplified on nonadherent culture substratum in high-glucose Dulbecco’s modified Eagle’s medium (DMEM) containing 10 % fetal bovine serum (FBS) and penicillin-streptomycin in a 37 °C, 5 % CO2, humidified incubator and were passaged by manual dissociation. […] Plates were subsequently rinsed, bleached, dried, and analyzed for matrix degradation using a Nikon COOLSCOPE (Nikon Instruments, Melville, NY, USA). Matrix resorption was quantified using EclipseNet (Nikon Instruments)/Visiopharm (Visiopharm, Hørsholm, Denmark) software (see Additional file 1).
In Vitro Osteoclastogenesis
Osteoclastogenic activity was measured using BD osteologic plates and quantitation of the degree of bone matrix digestion on the plate surface. Images from the BD Osteologic assay used to […]
left pane depicts an example of a control well after removal of cells from matrix. Pseudocoloring of matrix (blue) and pits (green) is shown in the far right pane. A transparent overlay of the two images is shown in the center.
Figure 5 - Measurement of drug effects on osteoclastogenesis and osteoclast activity.
Comparisons were made between RANKL treated control wells and wells treated with both RANKL and […]
Agents were initially tested either during differentiation or post differentiation in the bone assay […]
(e.g., Figure 2, Sulfazalazine). […]
indicated (*/**: p < 0.05/0.01, unpaired t-test versus RANKL control). […]

HeLa cells = experiment: HeLa cell viability (CellTiter-Glo)
Description: NF-κB activity was assessed using a previously described dual plasmid reporter system. HeLa cells were transfected with NF-κB luciferase (Stratagene Products Division, Agilent Technologies, La Jolla, CA, USA) and pRLuc-N3 (PerkinElmer, Waltham, MA, USA) at an 8:1 ratio, respectively, in triplicate. […] NF-κB activity was measured 5 h later with a Dual-Glo Luciferase Assay (Promega, Madison, WI, USA) and an Omni plate reader (BMG Labtech, Cary, NC, USA). The ratio of firefly luciferase luminescence (NF-κB reporter) to Renilla luciferase luminescence (control) was normalized for the number of viable transfected cells. Data are reported as a ratio of activity of viable treated cells over the activity of cells not exposed to TNF-α or drug (fold stimulation above basal untreated levels of activity). The viability of HeLa cells with and without drug was also measured using a CellTiter-Glo luminescent viability assay (Promega).
In Vitro Hela Cell Drug Toxicity Testing
Potential drug toxicity was measured using a CTG assay and HeLa cells (Promega). Drugs not tested in
this assay were tested in either of the in vitro toxicity assays already presented (synovial or chondrocyte
Table 3- Drug toxicity measured using a CTG assay and HeLa cells.

[1] = Comparison of in vitro screens: overlapping effective and nontoxic range; conditions: for Overlapping effective and nontoxic range: inhibits with minimal or no toxicity to synovium or cartilage, overlapping range if effective in more than one assay;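 for all read-outs here: compares non-toxic ranges in synovial cells and chondrocytes with effective ranges against NFkB, MMP-13 and osteoclasts, giving their overlap as the predicted efficacy range in uM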
[2] = published half-life; cited from earlier work
[3] = tested on: Normal human articular chondrocytes; experiment: Cytotoxicity to chondrogenic pellets (CellTiter-Blue)
Description: Differentiated chondrogenic pellets were used both to test the ability of drugs to block MMP-13 activity and to test for drug toxicity. […] Supernatants were collected and analyzed for MMP-13 using an enzyme-linked immunosorbent assay (GE Healthcare Life Sciences, Little Chalfont, UK). Cytotoxicity to pellets was assessed using CellTiter-Blue (Promega).

SW982 = experiment: Synovial toxicity (CellTiter-Glo), with or without TNF-α
Description: Viability was measured with the CellTiter-Glo luminescent viability assay (Promega). […] To more accurately predict the effects of the drugs on osteoarthritic synovium, cells were tested with or without TNF-α (20 ng/ml; BioSource).
In Vitro Toxicity Testing with a Synovial Cell Line
Compounds were tested for synovial toxicity using SW982 cells alone or in the presence of TNF as

MMP-13 = MMP-13 ELISA on supernatants of TNF-α-treated chondrogenic pellets; type: cell-based, human; conditions: for Concentration inhibiting MMP-13: > = failed to inhibit up to highest concentration tested

Compound | Effective range against Osteoclasts (RAW 264.7 cells) | Non-toxic & predicted range of efficacy [1] | t 1/2 [2] | Non-toxic range (Chondrocyte) [3] | Non-toxic range (Synovial) (SW982) [µM] | Overlapping effective and nontoxic range [1] | further results
O=C(O)c1cc(O)c2c(c1)C(=O)c1cccc(O)c1C2=O [Rhein] | Not effective | 40 µM | Anthraquinone-active metabolite of diacerein Reduces proliferation of chondrocytes and synoviocytes; inhibits NF-κB activation in vitro [101] t 1/2 = 4.3 h | 0.625 to 40 µM | 625000 to 4e+07 | – | Effective against NF κβ (p<0.05) (NF-κB): Only at toxic; Non-toxic concentrations (HeLa cells): 2.5 to 20 µM
Epigallocatechin-3-gallate [EGCG] | None? | 5.5 to 44 µM | – | 690000 to 4.4e+07 µM | 690000 to 4.4e+07 | 5.5 to 44 µM | Effective range against NFkB (NF-κB): 5.5 to 88 µM; Effective range against MMP-13 (MMP-13): ≥ 5.5 µM
CC[C@@H]1/C=C(\C)C[C@H](C)C[C@H](OC)[C@H]2O[C@@](O)(C(=O)C(=O)N3CCCC[C@H]3C(=O)O[C@H](/C(C)=C/[C@@H]3CC[C@H](Cl)[C@H](OC)C3)[C@H](C)[C@@H](O)CC1=O)[C@H](C)C[C@@H]2OC [Pimecrolimus] | – | 2.5 to 40 µM | Ascomycin macrolactam derivative Like tacrolimus, a calcineurin inhibitor that inhibits release of inflammatory cytokines [97] t 1/2 = 30–100 h | 0.625 to 40 µM | 0.625 to 40 | 2.5 to 20 µM | minimal effective concentration (RAW 264.7 cells): 0.01 µM; Effective range against MMP-13 (MMP-13): Not effective; Concentration inhibiting MMP-13 (MMP-13): > 40 µM
CC(=O)Oc1cccc2c1C(=O)c1c(OC(C)=O)cc(C(=O)O)cc1C2=O [Diacerein] | – | None | – | All toxic | 1.5 to 54.3 | Toxic to chondrocytes | Non-toxic concentrations (HeLa cells; (TNF), i.e. without TNF): 0 to 1.375e+07 µM; Non-toxic concentrations (HeLa cells; +TNF): 0 to 2.275e+07 µM; Toxic concentrations (p<0.05) (HeLa cells; with TNF): 50 to 110 M
CC1(C)O[C@@H]2C[C@H]3[C@@H]4CCC5=CC(=O)C=C[C@]5(C)[C@@]4(F)[C@@H](O)C[C@]3(C)[C@]2(C(=O)CO)O1 [Triamcinolone acetonide] | – | 31.25 to 500 µM | Steroid t 1/2 = 88 min | – | 0.7 to 250 | 250 to 500 µM | Lowest inhibitory concentration, matrix resorption (RAW 264.7 cells): 250 µM
CNC(=O)[C@H](Cc1c[nH]c2ccccc12)NC(=O)[C@@H](CC(=O)NO)CC(C)C [GM6001] | Not effective | – | – | 0.4 to 25 µM | 0.33 to 25 | – | MMP-13, effective concentration (MMP-13): 25
O=C(c1ccccc1)c1ccc2n1CCC2C(=O)O (centres unmarked) [Keterolac] | Not effective | ≥ 12.5 µM | – | 3.17 to 200 µM | 0.625 to 40 | – | –
CC1=C(CC(=O)O)c2cc(F)ccc2/C1=C\c1ccc([S+](C)[O-])cc1 (centres unmarked) [Sulindac] | – | 8.8 to 280 µM | NSAID t 1/2 = 7.8 h | 4.35 to 280 µM | 4.4 to 280 | 280 µM | Non-toxic concentrations (HeLa cells): 8.75 to 70 µM
Oc1ccc(/C=C/c2cc(O)cc(O)c2)cc1 [Resveratrol] | – | – | Suppresses IL-1β signaling and IL-1β-stimulated apoptosis in osteoarthritis [98] A natural inhibitor of NF-κB [99] t 1/2 = 1–3 h | 3.12 to 200 µM | 3.12 to 100 | – | Effective range against NFkB (NF-κB): Not effective; Lowest inhibitory concentration, matrix resorption (RAW 264.7 cells): 6.25 µM
O=C(O)c1cc(/N=N/c2ccc(S(=O)(=O)Nc3ccccn3)cc2)ccc1O [Sulfasalazine] | – | 50 to 400 µM | NSAID t 1/2 = 5 – 10 h | 12.5 to 800 µM | 12.5 to 400 | 150 to 1600 µM | –
Cc1ccc(S(=O)(=O)/C=C/C#N)cc1 [BAY-117082, BAY-11-7082] | ≥ 3 µM | None | – | 0.18 to 1.5 µM | 3 to 6 | 6 to 192 µM | Effective against NF κβ (p<0.05) (NF-κB): 12 to 96 µM; Effective range against NFkB (NF-κB): 12 to 96 µM; Effective range against MMP-13 (MMP-13): ≥ 0.75 µM; Non-toxic concentrations (HeLa cells): 6 to 96 µM; Concentration with notable toxicity (SW982): 12 µM
CC[C@@H]1/C=C(\C)C[C@H](C)C[C@H](OC)[C@H]2O[C@@](O)(C(=O)C(=O)N3CCCC[C@H]3C(=O)O[C@H](/C(C)=C/[C@@H]3CC[C@@H](O)[C@H](OC)C3)[C@H](C)[C@@H](O)CC1=O)[C@H](C)C[C@@H]2OC [Ascomycin] | – | 1.25 to 40 µM | – | 0.625 to 40 µM | 625000 to 4e+07 | 1.25 to 40 µM | minimal effective concentration (RAW 264.7 cells): 0.01 µM; Effective range against MMP-13 (MMP-13): Not effective; Concentration inhibiting MMP-13 (MMP-13): > 40 µM
Nc1cc(-c2ccncc2)c[nH]c1=O [Amrinone] | Not effective | ≥ 80 µM | – | 1.25 to 80 µM | 1.25 to 40 | 80 µM | Effective range against NFkB (NF-κB): None; MMP-13, effective concentration (MMP-13; number printed in the class column): 80
COc1ccc(CCN(C)CCCC(C#N)(c2ccc(OC)c(OC)c2)C(C)C)cc1OC (centres unmarked) [Verapamil] | Not effective | – | – | – | – | – | –
